Experimental data reported in patent US7645745B2, “Antiviral nucleosides” (priority 2006, dated 2010).
Where two headings read alike, the source gives them in different places.

Key:
[1] = Caco2 protocol: transport through Caco-2 cell monolayers (Papp); assay type: in vitro ADME; details: human
Experimental: (§1) To further evaluate potential behavior in human subjects, the transport through Caco-2 cells was evaluated for the putative prodrugs.
(§2) Powders of Krebs-Henseleit buffer, calcium chloride dihydrate, and sodium bicarbonate were purchased from Sigma (St. Louis, Mo.). Caco-2 cells (Passage˜100) were obtained from Roche Basel. Dulbecco's Modified Eagle's Medium (DMEM)/high medium, 4-(2-hydroxyethyl)-1-piperazineethane-sulfonic acid (HEPES), and bovine serum were obtained from JRH Bioscience (Lenexa, Kans.). MEM nonessential amino acids, L-glutamine, penicillin, and streptomycin were obtained from GIBCO Labs, Life Tech. LLC (Grand Island, N.Y.). Snapwell cell culture inserts (6.5 mm diameter, 1.12 cm^2, 0.4 μm pore size) were obtained from Costar (Cambridge, Mass.).
(§3) Culture media consisted of DMEM/high medium supplemented with 5% bovine serum, 25 mM HEPES, 1% MEM non-essential amino acids, 1% L-glutamine, 100 U/mL penicillin, and 100 μg/mL streptomycin. Cultures were passaged every week at a split ratio of 1-3. For the permeability studies, Caco-2 cells at passage number 110-120 were plated at a density of 400,000 cells/cm^2 on Transwell polycarbonate filters in Snapwell inserts and allowed to culture for 7 days prior to use.
(§4) Krebs-Henseleit bicarbonate buffer containing 10 mM glucose and 2.5 mM CaCl2 adjusted to pH 6.5 and 7.4 were prepared per packet instructions. Powder salts were quantitatively dissolved in about 90% of required volume with Millipore water. Calcium chloride dihydrate and sodium bicarbonate were added before pH adjustment with 1N HCl or 1N NaOH. Additional Millipore water was added to bring the solution to final volume. The solution was sterilized by filtration using membrane with a porosity of 0.22 microns and stored in the refrigerator ([…]) until use.
(§5) Snapwells inserts, containing caco-2 monolayers were rinsed in 37° C. equilibrated Krebs-Henseleit pH 7.4 buffer.
(§6) The cell insert was utilized as the diffusion chamber. The pH of the Krebs-Henseleit buffer in the apical and basolateral chambers was 6.5 and 7.4, respectively, and the initial concentration of substrate in apical side was 100 μM. […] The experiments were initiated when the cell inserts with 100 μM compounds in pH 6.5 Krebs-Henseleit buffer were transferred into a new plate with pre-equilibrated buffer in basolateral chamber. Samples from donor side at 0 min, and both donor and receiver sides at 30 min were collected for analysis.
(§7) Lucifer Yellow was used to assess the performance of the diffusion system. […] After 60 min of incubation, 250 μL was removed from the basal chamber and assayed.
(§8) The Papp was calculated using the following formula:
(§9) [formula] Where V is the volume (cm^3) of the receiver solution, A is the surface area (cm^2) of the Snapwell insert, Co is the initial concentration (nM), and dC/dt is the change in concentration in the receiver chamber over time, i.e., the slope (nM/min) of the concentration in the receiver chamber vs. time. Concentrations at each sampling time point were corrected to account for the aliquots removed or transferring of donor inserts to new plates depending on the experiment.

HCV = details: monotherapy; cited from earlier work
[2] = Determination of pharmacokinetic parameters in rats (oral gavage, plasma LC/MS/MS); assay type: in vivo, rat; details: AUC(cyt) of parent cytidine nucleoside in plasma, dose equivalent to 10 mg/kg, male Hanover-Wistar rats
Experimental: Determination of Pharmacokinetic Parameters in Rats Intact male IGS Wistar Han Rats Crl:WI(GLx/BRL/Han)IGS BR (Hanover-Wistar) rats weighing 200-250 g were used. Groups of three rats were used for each dose level of an experimental compound. Animals were allowed normal access to chow and water throughout the experiment. The test substance was formulated as an aqueous suspension containing Captex 355EP, Capmul MCM, EtOH, and propylene glycol (30:20:20:30) at a dose equivalent to 10 mg/kg of the I-5 and was administered orally by gavage. A blood sample (0.3 mL) was collected from the treated rats at, 0.25, 0.5, 1, 3, 5, and 8 h from a jugular cannula and at 24 h by cardiac puncture. Potassium oxalate/NaF were added to the samples which were stored on ice during sampling procedure. The samples were spun in a refrigerated centrifuge at […] as soon as possible and the plasma samples were stored in a −80° C. freezer until analysis. Aliquots of plasma (0.05 mL) were mixed with 0.1 mL of acetonitrile. Internal standard (0.05 mL in water) and 0.02 mL blank solvent were added. […] Sample Analysis—Prodrugs were analyzed using high-performance liquid chromatography with tandem mass-spectrometry (HPLC/MS/MS). […]

Caco-2 cells = experiment: Caco2 protocol: transport through Caco-2 cell monolayers (Papp); assay type: in vitro ADME; details: Caco-2 cultured 7 days; apical pH 6.5, basolateral pH 7.4; 100 μM apical; 30 min
Experimental: as §1, §2, §3, §4, §5, §6, §7, §8, §9

Structure (SMILES) | Papp A→B at 30 min, 100 μM ([1]; Caco-2) [×10⁻⁶ cm/s] | melting point [°C] | other results
C[C@@]1(O)[C@H](O)[C@@H](CO)O[C@H]1n1ccc(N)nc1=O [I-4, 4-amino-1-((2R,3R,4R,5R)-3,4-dihydroxy-5-hydroxymethyl-3-methyl-tetrahydro-furan-2-yl)-1H-pyrimidin-2-one, reference compound] | 0.76 |  | 
NC(=O)c1ncn([C@@H]2O[C@H](CO)[C@@H](O)[C@H]2O)n1 [ribavirin, 1-((2R,3R,4S,5R)-3,4-Dihydroxy-5-hydroxymethyl-tetrahydro-furan-2-yl)-1H-[1,2,4]triazole-3-carboxylic acid amide] |  |  | patients with serum amino transferase levels reduced to normal (HCV): 40%
CC(C)C(N)C(=O)O[C@@H]1[C@@H](CO)O[C@@H](n2ccc(N)nc2=O)[C@]1(C)O (stereo partly drawn) [I-5, reference compound] |  |  | Papp A→B at 30 min, 100 μM ([1]; Caco-2 cultured 7 days, apical pH 6.5, basolateral pH 7.4, 100 μM apical, 30 min, read-out: Caco2 (7 day)): 0.12 ×10⁻⁶ cm/s
CC(C)C(=O)OC[C@H]1O[C@@H](n2ccc(N)nc2=O)[C@](C)(O)[C@@H]1OC(=O)C(C)C.Cl [I-2, Iso-butyric Acid (2R,3R,4R,5R)-5-(4-amino-2-oxo-2H-pyrimidin-1-yl)-4-hydroxy-3-isobutyryloxy-4-methyl-tetrahydro-furan-2-ylmethyl ester; Hydrochloride Salt] |  |  | Rat AUC [2]: 5600 ± 300 ng·h/mL; Caco2 (7 day) (Caco-2 cells): 1.06 cm/sec × 10^−6

More lines, main results first:

Papp A→B at 30 min, 100 μM ([1]; Caco-2) [×10⁻⁶ cm/s] | melting point [°C] | Structure (SMILES) | other results
0.11 | 164.5 to 167 | CCC(=O)OC[C@H]1O[C@@H](n2ccc(N)nc2=O)[C@](C)(O)[C@@H]1OC(=O)CC.Cl [I-1, Propionic Acid (2R,3R,4R,5R)-5-(4-amino-2-oxo-2H-pyrimidin-1-yl)-4-hydroxy-4-methyl-3-propionyloxy-tetrahydro-furan-2-ylmethyl ester; Hydrochloride Salt] | 
4.21 | 158.2 to 159.2 | CCCCC(=O)OC[C@H]1O[C@@H](n2ccc(N)nc2=O)[C@](C)(O)[C@@H]1OC(=O)CCCC.Cl [I-3, Pentanoic Acid (2R,3R,4R,5R)-5-(4-amino-2-oxo-2H-pyrimidin-1-yl)-4-hydroxy-4-methyl-3-pentanoyloxy-tetrahydro-furan-2-ylmethyl ester; Hydrochloride Salt] | 
